# Measurements taken from ChEMBL document CHEMBL1201862, “PubChem BioAssay data set” (2004).
#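 Where inhibition never reached the appropriate level, the endpoint shown equals the highest concentration tested. Otherwise, values were interpolated linearly from a five-concentration, 48-hour dose response in 96-well plates. GI50 is the concentration that inhibits growth by half.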 The source made the active and inactive calls. Cut-off read from the data, not from the text of the source: active = GI50 up to about 1.1 µM and inactive = higher.
# What was measured:
# Experiment in all cases: DTP human tumour cell line panel, 48 h
# [1] = system: MOLT-4
# [2] = system: UACC-257
# [3] = system: OVCAR-5
# [4] = system: SR
# [5] = system: A549
# [6] = system: IGROV-1
# [7] = system: HCT-116
# [8] = system: CAKI-1
# [9] = system: HCT-15
# [10] = system: BT-549
# [11] = system: HCC 2998
# [12] = system: T47D
# [13] = system: HL-60
# [14] = system: ACHN
# [15] = system: SNB-75
# [16] = system: NCI-H226
# [17] = system: OVCAR-8
# [18] = system: TK-10
# [19] = system: HOP-62
# [20] = system: HT-29
# [21] = system: EKVX
# [22] = system: NCI/ADR-RES
# [23] = system: SK-MEL-5
# [24] = system: SF-295
# [25] = system: M14
# [26] = system: SK-OV-3
# [27] = system: DU-145
# [28] = system: UO-31
# [29] = system: SK-MEL-2
# [30] = system: MDA-MB-231
# [31] = system: Hs-578T
# [32] = system: MCF7
# [33] = system: NCI-H23
# [34] = system: 786-0
# [35] = system: SNB-19
# [36] = system: MDA-N
# [37] = system: RXF 393
# [38] = system: U-251
# [39] = system: K562
# [40] = system: SF-268
# [41] = system: A498
# [42] = system: CCRF-CEM
# [43] = system: OVCAR-3
# [44] = system: MDA-MB-435
# [45] = system: PC-3
# [46] = system: NCI-H522
# [47] = system: COLO 205
# [48] = system: RPMI-8226
# [49] = system: UACC-62
# [50] = system: SN12C
# [51] = system: OVCAR-4
# [52] = system: Malme-3M
# [53] = system: KM12
# [54] = system: SW-620
# [55] = system: LOX IMVI
# [56] = system: SK-MEL-28
# [57] = system: NCI-H460
# [58] = system: SF-539
smiles,measurement,setting,value
CN(C)S(=O)(=O)c1nc(Cl)c2nc[nH]c2n1,GI50,[1],> 100 µM (inactive)
same,GI50,[2],> 100 µM (inactive)
same,GI50,[3],> 100 µM (inactive)
same,GI50,[4],> 100 µM (inactive)
same,GI50,[5],> 100 µM (inactive)
same,GI50,[6],> 100 µM (inactive)
same,GI50,[7],> 100 µM (inactive)
same,GI50,[8],> 100 µM (inactive)
same,GI50,[9],> 100 µM
same,GI50,[10],> 100 µM (inactive)
same,GI50,[11],> 100 µM (inactive)
same,GI50,[12],> 100 µM (inactive)
same,GI50,[13],98.6 µM (inactive)
same,GI50,[14],> 100 µM (inactive)
same,GI50,[15],36.9 µM (inactive)
same,GI50,[16],> 100 µM (inactive)
same,GI50,[17],> 100 µM (inactive)
same,GI50,[18],> 100 µM (inactive)
same,GI50,[19],> 100 µM (inactive)
same,GI50,[20],> 100 µM (inactive)
same,GI50,[21],> 100 µM (inactive)
same,GI50,[22],> 100 µM (inactive)
same,GI50,[23],> 100 µM (inactive)
same,GI50,[24],> 100 µM (inactive)
same,GI50,[25],> 100 µM (inactive)
same,GI50,[26],> 100 µM (inactive)
same,GI50,[27],> 100 µM (inactive)
same,GI50,[28],> 100 µM (inactive)
same,GI50,[29],> 100 µM (inactive)
same,GI50,[30],> 100 µM (inactive)
same,GI50,[31],> 100 µM (inactive)
same,GI50,[32],> 100 µM (inactive)
same,GI50,[33],> 100 µM (inactive)
same,GI50,[34],> 100 µM (inactive)
same,GI50,[35],> 100 µM (inactive)
same,GI50,[36],> 100 µM (inactive)
same,GI50,[37],55.7 µM (inactive)
same,GI50,[38],> 100 µM (inactive)
same,GI50,[39],> 100 µM (inactive)
same,GI50,[40],> 100 µM (inactive)
same,GI50,[41],> 100 µM (inactive)
same,GI50,[42],> 100 µM (inactive)
same,GI50,[43],> 100 µM (inactive)
same,GI50,[44],> 100 µM (inactive)
same,GI50,[45],> 100 µM (inactive)
same,GI50,[46],> 100 µM (inactive)
same,GI50,[47],> 100 µM (inactive)
same,GI50,[48],> 100 µM (inactive)
same,GI50,[49],> 100 µM (inactive)
same,GI50,[50],> 100 µM (inactive)
same,GI50,[51],> 100 µM (inactive)
same,GI50,[52],> 100 µM (inactive)
same,GI50,[53],> 100 µM (inactive)
same,GI50,[54],> 100 µM (inactive)
same,GI50,[55],> 100 µM (inactive)
same,GI50,[56],> 100 µM (inactive)
CCn1c(SCC(=O)N/N=C2\SCC(=O)N2c2ccc(C)cc2)nc2ccccc2c1=O,GI50,[1],25.9 µM (inactive)
same,GI50,[2],15.7 µM (inactive)
same,GI50,[57],24.7 µM (inactive)
same,GI50,[3],20.5 µM (inactive)
same,GI50,[4],17.4 µM (inactive)
same,GI50,[5],21.2 µM (inactive)
same,GI50,[6],21.6 µM (inactive)
same,GI50,[7],20 µM (inactive)
same,GI50,[8],18.7 µM (inactive)
same,GI50,[9],32.1 µM
same,GI50,[10],> 10 µM (inactive)
same,GI50,[11],36.8 µM (inactive)
same,GI50,[12],25.1 µM (inactive)
same,GI50,[13],92.3 µM (inactive)
same,GI50,[14],18.6 µM (inactive)
same,GI50,[15],17.1 µM (inactive)
same,GI50,[16],23.8 µM (inactive)
same,GI50,[17],17 µM (inactive)
same,GI50,[18],15 µM (inactive)
same,GI50,[19],21.7 µM (inactive)
same,GI50,[20],16.5 µM (inactive)
same,GI50,[21],22.4 µM (inactive)
same,GI50,[22],19.8 µM (inactive)
same,GI50,[58],17.6 µM (inactive)
same,GI50,[23],22.9 µM (inactive)
same,GI50,[24],18.6 µM (inactive)
same,GI50,[25],36.1 µM (inactive)
same,GI50,[26],19.7 µM (inactive)
same,GI50,[27],28.2 µM (inactive)
same,GI50,[28],15.1 µM (inactive)
same,GI50,[29],28.9 µM (inactive)
same,GI50,[30],20.2 µM (inactive)
same,GI50,[31],16.4 µM (inactive)
same,GI50,[32],20.6 µM (inactive)
same,GI50,[33],19.1 µM (inactive)
same,GI50,[34],19.1 µM (inactive)
same,GI50,[35],20.8 µM (inactive)
same,GI50,[36],23.6 µM (inactive)
same,GI50,[37],17.4 µM (inactive)
same,GI50,[38],20.7 µM (inactive)
same,GI50,[39],29.2 µM (inactive)
same,GI50,[40],20.3 µM (inactive)
same,GI50,[41],20.8 µM (inactive)
same,GI50,[42],34 µM (inactive)
same,GI50,[43],21.4 µM (inactive)
same,GI50,[44],21.2 µM (inactive)
same,GI50,[45],21.3 µM (inactive)
same,GI50,[46],22.4 µM (inactive)
same,GI50,[47],50.9 µM (inactive)
same,GI50,[48],18.5 µM (inactive)
same,GI50,[49],15.3 µM (inactive)
same,GI50,[50],27 µM (inactive)
same,GI50,[51],18.2 µM (inactive)
same,GI50,[52],21.9 µM (inactive)
same,GI50,[53],19.4 µM (inactive)
same,GI50,[54],33.7 µM (inactive)
same,GI50,[55],25.2 µM (inactive)
same,GI50,[56],20.6 µM (inactive)
